Laboratory results taken from patent US20250243196A1, “CITRON KINASE INHIBITORS” (The Cleveland Clinic Foundation, priority 2021, published 2025).
Like-named read-outs stand apart in the source and are kept apart here.

Test system: NCI-60 human tumor cell line panel
Experiment: NCI-60 human tumor cell line screen (GI50)
Assay type: cell-based

For `Cc1cc2c(-c3ccc(NC(=O)[C@H](N)CC(C)(C)C)cc3C)ccnc2[nH]1` [Compound F-90, (2R)-2-Amino-4,4-dimethyl-N-[3-methyl-4-(2-methyl-1H-pyrrolo[2,3-b]pyridin-4-yl)phenyl]pentanamide], the GI50 (Homo sapiens, OVCAR-4, OVCAR-4, Ovarian Cancer, read-out: GI50) was 7 µM, the GI50 (Homo sapiens, OVCAR-5, OVCAR-5, Ovarian Cancer, read-out: GI50) was 10.4 µM and the GI50 (Homo sapiens, OVCAR-8, OVCAR-8, Ovarian Cancer, read-out: GI50) was 13.6 µM. For the same molecule, the GI50 (Homo sapiens, PC-3, Prostate Cancer, read-out: GI50) was 7.9 µM, the GI50 (Homo sapiens, RPMI-8226, RPMI-8226, Leukemia, read-out: GI50) was 2.8 µM and the GI50 (Homo sapiens, RXF 393, RXF 393, Renal Cancer, read-out: GI50) was 3.7 µM. For the same molecule, the GI50 (Homo sapiens, SF-268, SF-268, CNS Cancer, read-out: GI50) was 11.1 µM, the GI50 (Homo sapiens, SF-295, SF-295, CNS Cancer, read-out: GI50) was 8.3 µM and the GI50 (Homo sapiens, SF-539, SF-539, CNS Cancer, read-out: GI50) was 8 µM. For the same molecule, the GI50 (Homo sapiens, SK-MEL-2, SK-MEL-2, Melanoma, read-out: GI50) was 14 µM, the GI50 (Homo sapiens, SK-MEL-5, SK-MEL-5, Melanoma, read-out: GI50) was 2.5 µM and the GI50 (Homo sapiens, SK-MEL-28, SK-MEL-28, Melanoma, read-out: GI50) was 8.5 µM. It also gave a GI50 (Homo sapiens, SK-OV-3, SK-OV-3, Ovarian Cancer, read-out: GI50) of 12.4 µM, a GI50 (Homo sapiens, SN12C, Renal Cancer, read-out: GI50) of 11.1 µM and a GI50 (Homo sapiens, SNB-19, SNB-19, CNS Cancer, read-out: GI50) of 11.3 µM. It also gave a GI50 (Homo sapiens, SNB-75, SNB-75, CNS Cancer, read-out: GI50) of 4.7 µM, a GI50 (Homo sapiens, SR, Leukemia, read-out: GI50) of 2.1 µM and a GI50 (Homo sapiens, SW-620, SW-620, Colon Cancer, read-out: GI50) of 5.6 µM. For the same molecule, the GI50 (Homo sapiens, T47D, T-47D, Breast Cancer, read-out: GI50) was 6.7 µM, the GI50 (Homo sapiens, TK-10, TK-10, Renal Cancer, read-out: GI50) was 12.6 µM and the GI50 (Homo sapiens, U-251, U251, CNS Cancer, read-out: GI50) was 6 µM. For the same molecule, the GI50 (Homo sapiens, UACC-62, UACC-62, Melanoma, read-out: GI50) was 8.6 µM, the GI50 (Homo sapiens, UACC-257, UACC-257, Melanoma, read-out: GI50) was 10.5 µM and the GI50 (Homo sapiens, UO-31, UO-31, Renal Cancer, read-out: GI50) was 4.6 µM. For the same molecule, the GI50 (IGROV1, Ovarian Cancer) was −4.915 Log(M), the GI50 (K-562, Leukemia) was −5.551 Log(M) and the GI50 (KM12, Colon Cancer) was −5.215 Log(M). For the same molecule, the GI50 (LOX IMVI, Melanoma) was −5.211 Log(M), the GI50 (M14, Melanoma) was −4.959 Log(M) and the GI50 (MALME-3M, Melanoma) was −4.992 Log(M). For the same molecule, the GI50 (MCF7, Breast Cancer) was −5.256 Log(M), the GI50 (MDA-MB-231/ATCC, Breast Cancer) was −5.129 Log(M) and the GI50 (MDA-MB-435, Breast Cancer) was −5.155 Log(M). The GI50 (MDA-MB-468, Breast Cancer) was −5.564 Log(M), the GI50 (MOLT-4, Leukemia) was −5.329 Log(M) and the GI50 (NCI-H23, Non-Small Cell Lung Cancer) was −4.915 Log(M). For the same molecule, the GI50 (NCI-H226, Non-Small Cell Lung Cancer) was −4.971 Log(M), the GI50 (NCI-H322M, Non-Small Cell Lung Cancer) was −4.845 Log(M) and the GI50 (NCI-H460, Non-Small Cell Lung Cancer) was −5.245 Log(M). The GI50 (NCI-H522, Non-Small Cell Lung Cancer) was −4.887 Log(M), the GI50 (NCI/ADR-RES, Breast Cancer) was −4.873 Log(M) and the GI50 (OVCAR-3, Ovarian Cancer) was −4.937 Log(M). For the same molecule, the GI50 (OVCAR-4, Ovarian Cancer) was −5.158 Log(M), the GI50 (OVCAR-5, Ovarian Cancer) was −4.982 Log(M) and the GI50 (OVCAR-8, Ovarian Cancer) was −4.867 Log(M). For the same molecule, the GI50 (PC-3, Prostate Cancer) was −5.102 Log(M), the GI50 (RPMI-8226, Leukemia) was −5.557 Log(M) and the GI50 (RXF 393, Renal Cancer) was −5.434 Log(M). The GI50 (SF-268, CNS Cancer) was −4.953 Log(M), the GI50 (SF-295, CNS Cancer) was −5.079 Log(M) and the GI50 (SF-539, CNS Cancer) was −5.098 Log(M). The GI50 (SK-MEL-2, Melanoma) was −4.853 Log(M), the GI50 (SK-MEL-5, Melanoma) was −5.609 Log(M) and the GI50 (SK-MEL-28, Melanoma) was −5.072 Log(M). For the same molecule, the GI50 (SK-OV-3, Ovarian Cancer) was −4.905 Log(M), the GI50 (SN12C, Renal Cancer) was −4.953 Log(M) and the GI50 (SNB-19, CNS Cancer) was −4.945 Log(M). The GI50 (SNB-75, CNS Cancer) was −5.326 Log(M), the GI50 (SR, Leukemia) was −5.682 Log(M) and the GI50 (SW-620, Colon Cancer) was −5.250 Log(M). The GI50 (T-47D, Breast Cancer) was −5.174 Log(M), the GI50 (TK-10, Renal Cancer) was −4.901 Log(M) and the GI50 (U251, CNS Cancer) was −5.222 Log(M). For the same molecule, the GI50 (UACC-62, Melanoma) was −5.066 Log(M), the GI50 (UACC-257, Melanoma) was −4.977 Log(M) and the GI50 (UO-31, Renal Cancer) was −5.335 Log(M).
